Where “and” joins values, the source holds several entries; their conditions need not be identical. Identical values can stand only once.
Tests used:
[1] = DPPH radical scavenging activity assay; settings: DPPH 0.20 mM in methanol, 45 min in the dark, mean ± SD
Method: The test compounds at various concentration ranging from (0 to 40 µM) in DMSO were mixed with a solution of DPPH (0.20 mM) in methanol. […] All tests and analyses were run in triplicate and averaged. The inhibition was calculated in terms of percentage using the formula below:DPPH radical scavenged (%) = [(AbC ‒ AbS)/AbC] × 100(2) where AbC is absorbance of control and AbS the absorbance of the test sample.

β-secretase (BACE-1) [2] = molecular target: T1, β-secretase (BACE-1) (Homo sapiens, UniProt P56817); test: Kinetic study against β-secretase (Lineweaver–Burk and Dixon plots); format: biochemical; settings: for Mode of inhibition of β-secretase: Lineweaver–Burk plot; for Ki: from Dixon plots, read-out: Ki for inhibition of β-secretase
T1 construct: purchased Pan Vera; host or cells: baculovirus expression system
T1 sequence (P56817 46-501): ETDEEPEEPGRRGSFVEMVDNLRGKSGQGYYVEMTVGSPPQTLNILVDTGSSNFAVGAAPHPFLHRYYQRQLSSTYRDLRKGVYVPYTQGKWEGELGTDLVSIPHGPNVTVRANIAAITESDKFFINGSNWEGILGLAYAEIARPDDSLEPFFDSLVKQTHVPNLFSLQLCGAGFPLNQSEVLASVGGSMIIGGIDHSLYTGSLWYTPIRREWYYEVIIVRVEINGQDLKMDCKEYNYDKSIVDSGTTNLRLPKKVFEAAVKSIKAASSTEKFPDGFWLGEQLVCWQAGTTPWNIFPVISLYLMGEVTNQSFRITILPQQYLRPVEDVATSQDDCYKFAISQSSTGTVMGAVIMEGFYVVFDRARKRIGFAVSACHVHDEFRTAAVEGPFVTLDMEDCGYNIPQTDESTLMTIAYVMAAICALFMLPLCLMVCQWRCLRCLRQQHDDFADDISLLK
Method: (§1) The Lineweaver–Burk plots were drawn to determine the type of inhibition these compounds display against AChE and BChE (refer to Figure S2. In the Supplementary Material for the corresponding graphs).
(§2) Kinetic evaluation of 2l and 2p against ChEs or β-secretase were conducted following similar procedures previously employed for the corresponding flavonol precursors.

[3] = molecular target: acetylcholinesterase (AChE) (Homo sapiens, UniProt P22303); test: biochemical; format: biochemical; settings: for SI BChE/AChE: AChE selectivity index = IC50 (BChE)/IC50 (AChE); for IC50: mean ± SD, three independent experiments
acetylcholinesterase (AChE), sequence (P22303 32-614): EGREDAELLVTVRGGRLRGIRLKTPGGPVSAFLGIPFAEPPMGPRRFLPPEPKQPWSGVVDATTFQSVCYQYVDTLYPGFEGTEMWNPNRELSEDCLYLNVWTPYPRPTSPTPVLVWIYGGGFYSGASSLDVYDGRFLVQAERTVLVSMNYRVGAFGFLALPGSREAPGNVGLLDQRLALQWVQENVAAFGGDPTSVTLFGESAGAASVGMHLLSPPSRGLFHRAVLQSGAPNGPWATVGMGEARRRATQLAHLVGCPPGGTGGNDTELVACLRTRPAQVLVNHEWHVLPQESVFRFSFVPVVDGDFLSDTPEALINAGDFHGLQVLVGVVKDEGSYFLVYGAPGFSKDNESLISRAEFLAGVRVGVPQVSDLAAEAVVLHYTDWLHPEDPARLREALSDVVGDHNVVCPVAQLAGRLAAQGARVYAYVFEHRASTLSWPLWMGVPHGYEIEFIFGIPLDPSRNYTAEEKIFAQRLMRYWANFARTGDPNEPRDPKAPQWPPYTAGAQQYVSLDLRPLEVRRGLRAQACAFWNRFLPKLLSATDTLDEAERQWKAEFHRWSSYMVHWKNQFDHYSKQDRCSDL
Method: (§3) The IC50 and standard deviation values were determined graphically using Graph Pad Prism.

[4] = molecular target: butyrylcholinesterase (BChE) (Homo sapiens, UniProt P06276); test: biochemical; settings: for SI AChE/BChE: BChE selectivity index = IC50 (AChE)/IC50 (BChE); for IC50: mean ± SD, three independent experiments
butyrylcholinesterase (BChE), sequence (P06276 29-602): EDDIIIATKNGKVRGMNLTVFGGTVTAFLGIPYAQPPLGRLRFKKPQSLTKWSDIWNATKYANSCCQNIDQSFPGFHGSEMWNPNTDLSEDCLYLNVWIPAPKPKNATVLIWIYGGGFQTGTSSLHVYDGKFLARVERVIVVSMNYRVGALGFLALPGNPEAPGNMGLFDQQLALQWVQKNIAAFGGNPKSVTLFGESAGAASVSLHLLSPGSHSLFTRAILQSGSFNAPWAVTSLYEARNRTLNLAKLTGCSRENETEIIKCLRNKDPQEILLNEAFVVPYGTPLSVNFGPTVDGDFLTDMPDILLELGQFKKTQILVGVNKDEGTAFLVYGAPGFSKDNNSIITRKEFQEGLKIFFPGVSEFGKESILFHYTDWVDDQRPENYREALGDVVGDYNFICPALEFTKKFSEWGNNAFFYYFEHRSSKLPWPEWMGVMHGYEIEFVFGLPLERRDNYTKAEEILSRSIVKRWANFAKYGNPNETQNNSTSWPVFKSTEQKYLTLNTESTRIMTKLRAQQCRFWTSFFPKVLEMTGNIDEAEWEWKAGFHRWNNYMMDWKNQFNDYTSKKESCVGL
Method: as §3

BChE = BChE (Homo sapiens, UniProt P06276); test: Kinetic study against BChE (Lineweaver–Burk and Dixon plots); format: biochemical; settings: for Mode of inhibition of BChE: Lineweaver–Burk plot; for Ki: from Dixon plots
BChE, sequence (P06276 29-602): as above
Method: as §1, §2

AChE = AChE (Homo sapiens, UniProt P22303); test: Kinetic study against AChE (Lineweaver–Burk and Dixon plots); format: biochemical; settings: for Mode of inhibition of AChE: Lineweaver–Burk plot; for Ki: from Dixon plots, read-out: Inhibition constant (Ki) against AChE
AChE, sequence (P22303 32-614): as the sequence (P22303 32-614) above
Method: as §1, §2

β-secretase (BACE-1) [5] = molecular target: T1, β-secretase (BACE-1); test: In vitro β-secretase inhibitory FRET assay; format: biochemical; settings: 60 min incubation, read-out: IC50 (µM) against β-secretase activity
Method: The inhibition ratio was calculated using the following equation:Inhibition (%) = [1 − (S − S0)/(C − C0)] × 100(1) where C is the fluorescence of control (enzyme, assay buffer, and substrate) after 60 min of incubation, C0 is the fluorescence of control at time 0, S is the fluorescence of tested samples (enzyme, sample solution, and substrate) after 60 min of incubation, and S0 the fluorescence of the tested samples at time 0.

Row | Compound | IC50 [1] [µM] | Mode of inhibition of β-secretase (β-secretase (BACE-1) [2]) | Ki (β-secretase (BACE-1) [2]) [µM] | SI BChE/AChE [3] | IC50 [3] | SI AChE/BChE [4] | IC50 [4] [µM] | Mode of inhibition of BChE (BChE) | Ki (BChE) [µM] | Mode of inhibition of AChE (AChE) | Ki (AChE) [µM] | IC50 (β-secretase (BACE-1) [5]) [µM]
1 | O=c1c(O)c(-c2ccc(O)c(O)c2)oc2cc(O)cc(O)c12 [Quercetin, quercetin, reference compound] | 3.1 |  |  |  |  |  |  |  |  |  |  | 
2 | O=C1O[C@H]([C@@H](O)CO)C(O)=C1O [Ascorbic acid, ascorbic acid, reference compound] | 5.5 ± 0.02 |  |  |  |  |  |  |  |  |  |  | 
3 | COc1ccc(-c2oc3cc(Br)c(I)cc3c(=O)c2OC2OC(COC(C)=O)C(OC(C)=O)C(OC(C)=O)C2OC(C)=O)cc1 (stereo not drawn) [Compound 2l, 7-Bromo-6-iodo-2-(4-methoxyphenyl)-4H-chromen-4-one-3-O-2,3,4,6-O-tetraacetyl-β-d-glucopyranoside] | 21.6 ± 0.03 | non-competitive | 2.42 ± 0.05 | 1.43 | 5.05 ± 0.02 µM | 0.70 | 7.24 ± 0.03 | non-competitive | 1.51 ± 0.04 | non-competitive | 1.38 ± 0.62 | 18.3 ± 0.01
4 | CC(=O)OC[C@H]1O[C@@H](Oc2c(-c3ccccc3)oc3cc(Br)c(I)cc3c2=O)[C@H](OC(C)=O)[C@@H](OC(C)=O)[C@@H]1OC(C)=O [Compound 2i, 7-Bromo-6-iodo-2-phenyl-4H-chromen-4-one-3-O-2,3,4,6-O-tetraacetyl-β-d-glucopyranoside] |  |  |  | 0.14 | 70.56 ± 0.03 µM | 7.14 | 9.79 ± 0.04 |  |  |  |  | 
5 | CC(=O)OC[C@H]1O[C@@H](Oc2c(-c3ccc(F)cc3)oc3cc(F)c(I)cc3c2=O)[C@H](OC(C)=O)[C@@H](OC(C)=O)[C@@H]1OC(C)=O [Compound 2b, 7-Fluoro-(4-fluorophenyl)-6-iodo-4H-chromen-4-one-3-O-2,3,4,6-O-tetraacetyl-β-d-glucopyranoside] |  |  |  | 0.78 | 28.2 ± 0.02 µM | 1.3 | 21.9 ± 0.04 |  |  |  |  | 
6 | CC(=O)OC[C@H]1O[C@@H](Oc2c(-c3ccc(Cl)cc3)oc3cc(F)c(I)cc3c2=O)[C@H](OC(C)=O)[C@@H](OC(C)=O)[C@@H]1OC(C)=O [Compound 2c, 7-Fluoro-2-(4-Chlorophenyl)-6-iodo-4H-chromen-4-one-3-O-2,3,4,6-O-tetraacetyl-β-d-glucopyranoside] |  |  |  | 1.25 | 24.74 ± 0.03 µM | 0.80 | 30.84 ± 0.04 |  |  |  |  | 
7 | CC(=O)OCC1OC(Oc2c(-c3ccc(Cl)cc3)oc3cc(Cl)c(I)cc3c2=O)C(OC(C)=O)C(OC(C)=O)C1OC(C)=O (stereo not drawn) [Compound 2g, 7-Chloro-2-(4-chlorophenyl)-6-iodo-4H-chromen-4-one-3-O-2,3,4,6-O-tetraacetyl-β-d-glucopyranoside] | 13.1 ± 0.01 |  |  | 0.23 | 31.44 ± 0.13 µM | 4.35 | 7.15 ± 0.01 |  |  |  |  | 
8 | COc1ccc(-c2oc3cc(F)c(I)cc3c(=O)c2O[C@@H]2O[C@H](COC(C)=O)[C@@H](OC(C)=O)[C@H](OC(C)=O)[C@H]2OC(C)=O)cc1 [Compound 2d, 7-Fluoro-6-iodo-2-(4-methoxyphenyl)-4H-chromen-4-one-3-O-2,3,4,6-O-tetraacetyl-β-d-glucopyranoside] |  |  |  | 0.32 | 60.4 ± 0.05 µM | 3.13 | 19.25 ± 0.11 |  |  |  |  | 
9 | COc1cc2oc(-c3ccccc3)c(O[C@@H]3O[C@H](COC(C)=O)[C@@H](OC(C)=O)[C@H](OC(C)=O)[C@H]3OC(C)=O)c(=O)c2cc1I [Compound 2m, 6-Iodo-7-methoxy-2-phenyl-4H-chromen-4-one-3-O-2,3,4,6-O-tetraacetyl-β-d-glucopyranoside] |  |  |  | 0.53 | 56.21 ± 0.01 µM | 1.89 | 29.8 ± 0.06 |  |  |  |  | 
10 | CC(=O)OC[C@H]1O[C@@H](Oc2c(-c3ccc(F)cc3)oc3cc(Cl)c(I)cc3c2=O)[C@H](OC(C)=O)[C@@H](OC(C)=O)[C@@H]1OC(C)=O [Compound 2f, 7-Chloro-2-(4-fluorophenyl)-6-iodo-4H-chromen-4-one-3-O-2,3,4,6-O-tetraacetyl-β-d-glucopyranoside] |  |  |  | 0.44 | 70.66 ± 0.01 µM | 2.27 | 31.09 ± 0.04 |  |  |  |  | 
11 | COc1cc2oc(-c3ccc(F)cc3)c(OC3OC(COC(C)=O)C(OC(C)=O)C(OC(C)=O)C3OC(C)=O)c(=O)c2cc1I (stereo not drawn) [Compound 2n, 2-(4-Fluorophenyl)-6-Iodo-7-methoxy-4H-chromen-4-one-3-O-2,3,4,6-O-tetraacetyl-β-d-glucopyranoside] | 14.4 ± 0.02 |  |  | 5.49 | 6.33 µM and 6.23 µM | 0.18 | 34.21 ± 0.02 |  |  |  |  | 
12 | COc1cc2oc(-c3ccc(Cl)cc3)c(O[C@@H]3O[C@H](COC(C)=O)[C@@H](OC(C)=O)[C@H](OC(C)=O)[C@H]3OC(C)=O)c(=O)c2cc1I [Compound 2o, 2-(4-Chlorophenyl)-6-iodo-7-methoxy-4H-chromen-4-one-3-O-2,3,4,6-O-tetraacetyl-β-d-glucopyranoside] |  |  |  | 1.28 | 28.12 ± 0.06 µM | 0.78 | 36.1 ± 0.02 |  |  |  |  | 
13 | CC(=O)OCC1OC(Oc2c(-c3ccccc3)oc3cc(Cl)c(I)cc3c2=O)C(OC(C)=O)C(OC(C)=O)C1OC(C)=O (stereo not drawn) [Compound 2e, 7-Chloro-6-iodo-2-phenyl-4H-chromen-4-one-3-O-2,3,4,6-O-tetraacetyl-β-d-glucopyranoside] |  |  |  | 0.26 | 34.44 ± 0.03 µM | 3.85 | 9.03 ± 0.12 |  |  |  |  | 
14 | COc1ccc(-c2oc3cc(Cl)c(I)cc3c(=O)c2O[C@@H]2O[C@H](COC(C)=O)[C@@H](OC(C)=O)[C@H](OC(C)=O)[C@H]2OC(C)=O)cc1 [Compound 2h, 7-Chloro-6-iodo-2-(4-methoxyphenyl)-4H-chromen-4-one-3-O-2,3,4,6-O-tetraacetyl-β-d-glucopyranoside] |  |  |  | 0.39 | 25.92 ± 0.02 µM | 2.56 | 10.1 ± 0.06 |  |  |  |  | 
15 | CC(=O)OC[C@H]1O[C@@H](Oc2c(-c3ccc(F)cc3)oc3cc(Br)c(I)cc3c2=O)[C@H](OC(C)=O)[C@@H](OC(C)=O)[C@@H]1OC(C)=O [Compound 2j, 7-Bromo-2-(4-fluorophenyl)-6-iodo-4H-chromen-4-one-3-O-2,3,4,6-O-tetraacetyl-β-d-glucopyranoside] |  |  |  | 1.31 | 31.2 ± 0.05 µM | 0.76 | 40.93 ± 0.04 |  |  |  |  | 
16 | CC(=O)OCC1OC(Oc2c(-c3ccc(Cl)cc3)oc3cc(Br)c(I)cc3c2=O)C(OC(C)=O)C(OC(C)=O)C1OC(C)=O (stereo not drawn) [Compound 2k, 7-Bromo-2-(4-chlorophenyl)-6-iodo-4H-chromen-4-one-3-O-2,3,4,6-O-tetraacetyl-β-d-glucopyranoside] | 11.4 ± 0.02 |  |  | 5.78 | 5.18 ± 0.01 µM | 0.17 | 29.95 ± 0.02 |  |  |  |  | 
17 | CC(=O)OC[C@H]1O[C@@H](Oc2c(-c3ccccc3)oc3cc(F)c(I)cc3c2=O)[C@H](OC(C)=O)[C@@H](OC(C)=O)[C@@H]1OC(C)=O [Compound 2a, 7-Fluoro-6-iodo-2-phenyl-4H-chromen-4-one-3-O-2,3,4,6-O-tetraacetyl-β-d-glucopyranoside] |  |  |  | 1.40 | 18.72 ± 0.03 µM | 0.71 | 26.17 ± 0.01 |  |  |  |  | 
18 | COc1ccc(-c2oc3cc(OC)c(I)cc3c(=O)c2OC2OC(COC(C)=O)C(OC(C)=O)C(OC(C)=O)C2OC(C)=O)cc1 (stereo not drawn) [Compound 2p, 6-Iodo-7-methoxy-2-(4-methoxyphenyl)-4H-chromen-4-one-3-O-2,3,4,6-O-tetraacetyl-β-d-glucopyranoside] | 17.9 ± 0.04 | non-competitive | 2.94 ± 0.02 | 0.57 | 9.19 ± 0.03 µM | 1.75 | 5.21 ± 0.03 | non-competitive | 1.62 ± 0.03 | non-competitive | 2.36 ± 0.32 | 25.2 ± 0.15
